Data on four molecules can be found in patent US9969701B2, “Salts and co-crystals of lesinurad” (CRYSTAL PHARMATECH, INC., priority 2013, dated 2018).

Converted amounts (≈) assume the structure as drawn.

Usually solubility stands for the concentration that dissolves in the medium under given conditions. Higher therefore signals much dissolved substance.

Data set [1] in a line: Hygroscopicity assessment by dynamic vapor sorption (DVS). Type of data set: physicochemical. The protocol: Dynamic Vapor Sorption (DVS) was measured via a SMS (Surface Measurement Systems) DVS Intrinsic. The relative humidity at 25° C. was calibrated against deliquescence point of LiCl, Mg(NO3)2 and KCl. Typical Parameters for DVS test are listed below.
Gas and flow rate: N2, 200 mL/min

Data set [2] in a line: Stability assessment under stress conditions (solid form by XRPD after storage). Type of data set: physicochemical. The conditions noted are these: 14 days; for Stability under stress conditions: 25° C./60% RH and 40° C./75% RH; for Final form: XRPD. The protocol: Analytical Instrument: Panalytical Empyrean. The X-ray powder diffractogram was determined by mounting a sample of the crystalline material on a Si single crystal low-background holder and spreading out the sample into a thin layer with the aid of a microscope slide. The 2θ position was calibrated against Panalytical 640 Si powder standard. The sample irradiated with X-rays generated by a copper long-fine focus tube operated at 45 kV and 40 mA with a wavelength of Kα1=1.540589 angstroms and Kα2=1.544426 angstroms (Kα1/Kα2 intensity ratio is 0.50). The collimated X-ray source was passed through a programmed divergence slit set at 10 mm and the reflected radiation directed through a 5.5 mm anti-scattering slit. The sample was exposed for 16.3 seconds per 0.013° 2-theta increment (continuous scan mode) over the range 3 degrees to 40 degrees 2-theta in theta-theta mode. The running time was 3 minutes and 57 seconds. The instrument was equipped with an RTMS detector (X'Celerator). Control and data capture was accomplished by means of a Dell Optiplex 780 XP operating with data collector software.
The solid samples were analyzed by […].
The solid samples were analyzed by XRPD.

The test system of data set [3] is gout patients. The conditions noted are these: gout patients who did not get benefit from allopurinol and febuxostat; lesinurad alone; cited from earlier work.
A short description of data set [4]: Kinetic solubility in bio-relevant media (FaSSIF, FeSSIF), HPLC quantification. The conditions noted are these: thermodynamic from solid, RT; for solubility at 1 h: time point 1 h; for solubility at 4 h: time point 4 h; for solubility at 24 h: time point 24 h. Type of data set: physicochemical. The protocol: 2. Add 3 mL of bio-relevant medium into each vial.
3. Cap the vials and keep all the suspension samples stirring at RT (room temperature) using a rolling incubator at a rate of 25 r/min.
4. Sample at 1 h, 4 h and 24 h respectively. About 0.6 mL aliquot of the suspension is transferred per time from solubility vial into a centrifuge filtration tube (pore size of 0.45 μm).
5. Centrifuge filtration tubes at a rate of 8500 rpm for 3 minutes at RT, collect 0.2 mL of supernatant for HPLC quantification determination and collect the rest of solution for pH measurement, and separate the solid for XRPD characterization.

Setting [5] is: FaSSIF (fasted state simulated intestinal fluid), FaSSIF.
Setting [6] is: FeSSIF (fed state simulated intestinal fluid), FeSSIF.

For the molecule `O=C([O-])CSc1nnc(Br)n1-c1ccc(C2CC2)c2ccccc12.[Na+]` [sodium salt Form A, reference compound], the “Water uptake under 80% RH” value in data set [1] (25° C., 80% RH) is recorded as 25.11%. Also, the “Water uptake under 95% RH” value in data set [1] (25° C.) came to 32.13%.
In the case of `O=C(O)CSc1nnc(Br)n1-c1ccc(C2CC2)c2ccccc12.O=C(O)[C@@H]1CCCN1`, in data set [2], the “Stability under stress conditions” value is “stable”. Moreover, the Final form entry in data set [2] (stored under 25° C./60% RH) and in data set [2] (stored under 40° C./75% RH) was “co-crystal” throughout.
In the case of `O=C(O)CSc1nnc(Br)n1-c1ccc(C2CC2)c2ccccc12` [lesinurad freeacid, 2-((5-bromo-4-(4-cyclopropylnaphthalen-1-yl)-4H-1,2,4-triazol-3-yl)thio)acetic acid], in data set [3], the “Serum levels of uric acid” value is “significantly reduced”. In data set [4] (setting [5]), this molecule showed a solubility at 1 h of 2890 µg/mL (≈ 7.15 mM), a solubility at 4 h of 3580 µg/mL (≈ 8.86 mM) and a solubility at 24 h of 3000 µg/mL (≈ 7.42 mM). Moreover, in data set [4] (setting [6]), the concentration in solution (solubility at 1 h) came to 1510 µg/mL (≈ 3.72 mM), the concentration in solution (solubility at 4 h) was 2140 µg/mL (≈ 5.29 mM) and the solubility at 24 h was 1930 µg/mL (≈ 4.78 mM).
As for `O=C([O-])CSc1nnc(Br)n1-c1ccc(C2CC2)c2ccccc12.O=C([O-])CSc1nnc(Br)n1-c1ccc(C2CC2)c2ccccc12.[Ca+2]` [calcium salt Form A], the “Water uptake under 80% RH” value in data set [1] (25° C., 80% RH) is reported as 0.15%. Besides, the “Water uptake under 95% RH” value in data set [1] (25° C.) stood at 0.33%. The Hygroscopicity result in data set [1] (80% RH, 25° C., European pharmacopoeia criteria) was “almost not hygroscopic”. Further, in data set [1] (high humidity), the “Deliquescence under high humidity conditions” value is “does not deliquesce”. In data set [2], the “Stability under stress conditions” value is “stable”. Besides, the Final form entry in data set [2] (stored under 25° C./60% RH) and in data set [2] (stored under 40° C./75% RH) was “calcium salt Form A” each time.
